Reference: ChEMBL document CHEMBL3885861, “Open TG-GATES”

Organism: Rattus norvegicus
Test: Open TG-GATES - Regimen: Single
Type: toxicity, organism-based, Sprague-Dawley
Set-up: regimen Single, gender Male, age 6 weeks
Settings: in vivo, po, route gavage; for TC / TP / gamma-GTP / ALP / ALT / AST / BUN / CRE / DBIL / GLC / IP / K / LDH / RALB / TBIL / PL: tissue Plasma; for APTT / Bas / Eos / Fbg / Ht / Lym / MCHC / MCV / Mono / PT / Plat / RBC / Ret / WBC: tissue Blood; for KIDNEY_L / KIDNEY_R / KIDNEY_TOTAL: tissue Kidney; for LIVER: tissue Liver
[1] = 0 mg/kg, 24 h, dose level Control

Q: Which results are given for `CN(C)CCCN1c2ccccc2CCc2ccccc21` [IMIPRAMINE]?
A: TC [1]: 76 mg/dL; TP [1]: 5.6 g/dL; gamma-GTP [1]: 1 IU/L; TERMINAL_BW (10 mg/kg, 3 h, dose level Low): 203.3 g; APTT (10 mg/kg, 3 h, dose level Low): 16.8 s; Bas (10 mg/kg, 3 h, dose level Low): 0%; Eos (10 mg/kg, 3 h, dose level Low): 1.2%; Fbg (10 mg/kg, 3 h, dose level Low): 264.4 mg/dL; Ht (10 mg/kg, 3 h, dose level Low): 42.9%; Lym (10 mg/kg, 3 h, dose level Low): 78.6%; MCHC (10 mg/kg, 3 h, dose level Low): 31.9%; MCV (10 mg/kg, 3 h, dose level Low): 66.6 fL; Mono (10 mg/kg, 3 h, dose level Low): 2.8%; PT (10 mg/kg, 3 h, dose level Low): 16 s; Plat (10 mg/kg, 3 h, dose level Low): 108.8 x10_4/uL; RBC (10 mg/kg, 3 h, dose level Low): 644 x10_4/ul; Ret (10 mg/kg, 3 h, dose level Low): 8.6%; WBC (10 mg/kg, 3 h, dose level Low): 74.5 x10_2/uL; KIDNEY_L (10 mg/kg, 3 h, dose level Low): 0.9 g; KIDNEY_R (10 mg/kg, 3 h, dose level Low): 0.9 g; KIDNEY_TOTAL (10 mg/kg, 3 h, dose level Low): 1.8 g; LIVER (10 mg/kg, 3 h, dose level Low): 9.1 g; ALP (10 mg/kg, 3 h, dose level Low): 1700 IU/L; ALT (10 mg/kg, 3 h, dose level Low): 46.6 IU/L; AST (10 mg/kg, 3 h, dose level Low): 76.8 IU/L; BUN (10 mg/kg, 3 h, dose level Low): 8.6 mg/dL; CRE (10 mg/kg, 3 h, dose level Low): 0.1 mg/dL; DBIL (10 mg/kg, 3 h, dose level Low): 0.01 mg/dL; GLC (10 mg/kg, 3 h, dose level Low): 187.4 mg/dL; IP (10 mg/kg, 3 h, dose level Low): 10 mg/dL; K (10 mg/kg, 3 h, dose level Low): 4.3 meq/L; LDH (10 mg/kg, 3 h, dose level Low): 73 IU/L; RALB (10 mg/kg, 3 h, dose level Low): 2.6 g/dL; TBIL (10 mg/kg, 3 h, dose level Low): 0.066 mg/dL; TC (10 mg/kg, 3 h, dose level Low): 80.4 mg/dL; TP (10 mg/kg, 3 h, dose level Low): 5.5 g/dL; gamma-GTP (10 mg/kg, 3 h, dose level Low): 1.2 IU/L; TERMINAL_BW (10 mg/kg, 6 h, dose level Low): 199.7 g; APTT (10 mg/kg, 6 h, dose level Low): 16 s; Bas (10 mg/kg, 6 h, dose level Low): 0.2%; Eos (10 mg/kg, 6 h, dose level Low): 0.8%; Fbg (10 mg/kg, 6 h, dose level Low): 276.2 mg/dL; Ht (10 mg/kg, 6 h, dose level Low): 42.9%; Lym (10 mg/kg, 6 h, dose level Low): 75%; MCHC (10 mg/kg, 6 h, dose level Low): 32.3%; MCV (10 mg/kg, 6 h, dose level Low): 66.5 fL; Mono (10 mg/kg, 6 h, dose level Low): 2.2%; PT (10 mg/kg, 6 h, dose level Low): 15.8 s; Plat (10 mg/kg, 6 h, dose level Low): 108.4 x10_4/uL; RBC (10 mg/kg, 6 h, dose level Low): 645.6 x10_4/ul; Ret (10 mg/kg, 6 h, dose level Low): 8.3%; WBC (10 mg/kg, 6 h, dose level Low): 92.4 x10_2/uL; KIDNEY_L (10 mg/kg, 6 h, dose level Low): 0.9 g; KIDNEY_R (10 mg/kg, 6 h, dose level Low): 0.9 g; KIDNEY_TOTAL (10 mg/kg, 6 h, dose level Low): 1.9 g; ALP (10 mg/kg, 6 h, dose level Low): 1517 IU/L; ALT (10 mg/kg, 6 h, dose level Low): 54.4 IU/L; AST (10 mg/kg, 6 h, dose level Low): 79.4 IU/L; BUN (10 mg/kg, 6 h, dose level Low): 8.2 mg/dL; CRE (10 mg/kg, 6 h, dose level Low): 0.2 mg/dL; GLC (10 mg/kg, 6 h, dose level Low): 183 mg/dL; IP (10 mg/kg, 6 h, dose level Low): 9.6 mg/dL; K (10 mg/kg, 6 h, dose level Low): 4.2 meq/L; LDH (10 mg/kg, 6 h, dose level Low): 139.2 IU/L; PL (10 mg/kg, 6 h, dose level Low): 137.6 mg/dL; RALB (10 mg/kg, 6 h, dose level Low): 2.5 g/dL; TBIL (10 mg/kg, 6 h, dose level Low): 0.064 mg/dL; TC (10 mg/kg, 6 h, dose level Low): 74.8 mg/dL; TP (10 mg/kg, 6 h, dose level Low): 5.3 g/dL; gamma-GTP (10 mg/kg, 6 h, dose level Low): 1 IU/L; TERMINAL_BW (10 mg/kg, 9 h, dose level Low): 198.9 g; APTT (10 mg/kg, 9 h, dose level Low): 16.4 s; Bas (10 mg/kg, 9 h, dose level Low): 0.2%; Eos (10 mg/kg, 9 h, dose level Low): 1%; Fbg (10 mg/kg, 9 h, dose level Low): 294.4 mg/dL; Ht (10 mg/kg, 9 h, dose level Low): 42.3%; Lym (10 mg/kg, 9 h, dose level Low): 75.6%; MCHC (10 mg/kg, 9 h, dose level Low): 32.5%; MCV (10 mg/kg, 9 h, dose level Low): 64.4 fL; Mono (10 mg/kg, 9 h, dose level Low): 2.2%; PT (10 mg/kg, 9 h, dose level Low): 15.9 s; Plat (10 mg/kg, 9 h, dose level Low): 114.9 x10_4/uL; RBC (10 mg/kg, 9 h, dose level Low): 658 x10_4/ul; Ret (10 mg/kg, 9 h, dose level Low): 7.7%; WBC (10 mg/kg, 9 h, dose level Low): 71.4 x10_2/uL; KIDNEY_L (10 mg/kg, 9 h, dose level Low): 0.9 g; KIDNEY_R (10 mg/kg, 9 h, dose level Low): 0.9 g; KIDNEY_TOTAL (10 mg/kg, 9 h, dose level Low): 1.8 g; LIVER (10 mg/kg, 9 h, dose level Low): 8.2 g; ALP (10 mg/kg, 9 h, dose level Low): 1463.6 IU/L; ALT (10 mg/kg, 9 h, dose level Low): 37.6 IU/L; AST (10 mg/kg, 9 h, dose level Low): 66.2 IU/L; BUN (10 mg/kg, 9 h, dose level Low): 7.4 mg/dL; CRE (10 mg/kg, 9 h, dose level Low): 0.1 mg/dL; DBIL (10 mg/kg, 9 h, dose level Low): 0.01 mg/dL; GLC (10 mg/kg, 9 h, dose level Low): 181 mg/dL; IP (10 mg/kg, 9 h, dose level Low): 9.9 mg/dL; K (10 mg/kg, 9 h, dose level Low): 4.1 meq/L; LDH (10 mg/kg, 9 h, dose level Low): 67.6 IU/L; PL (10 mg/kg, 9 h, dose level Low): 137.4 mg/dL; RALB (10 mg/kg, 9 h, dose level Low): 2.6 g/dL; TBIL (10 mg/kg, 9 h, dose level Low): 0.066 mg/dL; TC (10 mg/kg, 9 h, dose level Low): 78.4 mg/dL; TP (10 mg/kg, 9 h, dose level Low): 5.5 g/dL; gamma-GTP (10 mg/kg, 9 h, dose level Low): 1.2 IU/L; TERMINAL_BW (10 mg/kg, 24 h, dose level Low): 217.3 g; APTT (10 mg/kg, 24 h, dose level Low): 16.2 s; Bas (10 mg/kg, 24 h, dose level Low): 0%; Eos (10 mg/kg, 24 h, dose level Low): 0.4%; Fbg (10 mg/kg, 24 h, dose level Low): 254 mg/dL; Ht (10 mg/kg, 24 h, dose level Low): 40.6%; Lym (10 mg/kg, 24 h, dose level Low): 81%; MCHC (10 mg/kg, 24 h, dose level Low): 32.3%; MCV (10 mg/kg, 24 h, dose level Low): 65.1 fL; Mono (10 mg/kg, 24 h, dose level Low): 2.4%; PT (10 mg/kg, 24 h, dose level Low): 16.2 s; Plat (10 mg/kg, 24 h, dose level Low): 104.4 x10_4/uL; RBC (10 mg/kg, 24 h, dose level Low): 625.4 x10_4/ul; Ret (10 mg/kg, 24 h, dose level Low): 7.4%; WBC (10 mg/kg, 24 h, dose level Low): 76.3 x10_2/uL; KIDNEY_L (10 mg/kg, 24 h, dose level Low): 0.9 g; KIDNEY_R (10 mg/kg, 24 h, dose level Low): 0.9 g; KIDNEY_TOTAL (10 mg/kg, 24 h, dose level Low): 1.8 g; LIVER (10 mg/kg, 24 h, dose level Low): 9.7 g; ALP (10 mg/kg, 24 h, dose level Low): 1443 IU/L; ALT (10 mg/kg, 24 h, dose level Low): 48.6 IU/L; AST (10 mg/kg, 24 h, dose level Low): 80.8 IU/L; BUN (10 mg/kg, 24 h, dose level Low): 15.6 mg/dL; CRE (10 mg/kg, 24 h, dose level Low): 0.2 mg/dL; GLC (10 mg/kg, 24 h, dose level Low): 187.2 mg/dL; IP (10 mg/kg, 24 h, dose level Low): 7.6 mg/dL; K (10 mg/kg, 24 h, dose level Low): 4 meq/L; LDH (10 mg/kg, 24 h, dose level Low): 73.2 IU/L; RALB (10 mg/kg, 24 h, dose level Low): 2.5 g/dL; TBIL (10 mg/kg, 24 h, dose level Low): 0.058 mg/dL; TC (10 mg/kg, 24 h, dose level Low): 78 mg/dL
